Laboratory results taken from ChEMBL document CHEMBL1125524, “Adenosine A1 antagonists. 2. Structure-activity relationships on diuretic activities and protective effects against acute renal failure” (J Med Chem, 1992).

Legend:
Adenosine A2 receptor = Adenosine A2 receptor (Rattus norvegicus, UniProt P29276+P30543)
Rattus norvegicus [1] = experiment: Ratio of sodium ion/potassium ion concentration in treated rats to that in control rats, at a peroral dose of 25 mg/Kg; type: functional
Rattus norvegicus [2] = experiment: Oral diuretic activity was measured after oral administration of 25 mg/kg to rats(control volume is 0.69+/-0.03); type: functional, Urine
Rattus norvegicus [3] = experiment: Percent inhibition of serum creatinine by the compound given as ratio of Cr value in treated to vehicle treated ones after intraperitoneal administration of 1 mg/kg of compound to rats(vehicle 3.06+/-0.68); type: functional; details: ip
Rattus norvegicus [4] = experiment: Percent inhibition of serum creatinine by the compound given as ratio of UN value in treated to vehicle treated ones after intraperitoneal administration of 10 mg/kg of compound to rats(vehicle 146.7+/-10.1); type: functional; details: ip
Rattus norvegicus [5] = experiment: Ratio of urinary excretion value (Na+ concentration) in treated rats to that in control rats, at a peroral dose of 1.6 mg/Kg; type: functional, Urine
Rattus norvegicus [6] = experiment: Ratio of sodium ion/potassium ion concentration in treated rats to that in control rats, at a peroral dose of 1.6 mg/Kg; type: functional
Rattus norvegicus [7] = experiment: Ratio of urinary excretion value (Na+ concentration) in treated rats to that in control rats, at a peroral dose of 25 mg/Kg; type: functional, Urine
Rattus norvegicus [8] = experiment: Oral diuretic activity was measured after oral administration of 1.6 mg/kg to rats(control volume is 1.12+/-0.33); type: functional, Urine
Rattus norvegicus [9] = experiment: Effect on urinary excretion potassium and sodium after oral administration of 25 mg/kg to rats(potassium and sodium excretion in control rat is 0.079+/-0.007); type: functional, Urine
Rattus norvegicus [10] = experiment: Serum creatinine concentration measured after intraperitoneal administration of 10 mg/kg of compound to rats(vehicle 4.26+/-0.39); type: functional
Rattus norvegicus [11] = experiment: Urea nitrogen concentration measured after intraperitoneal administration of 1 mg/kg of compound to rats(vehicle 120.9+/-23.3); type: functional
Rattus norvegicus [12] = experiment: Percent inhibition of serum creatinine by the compound given as ratio of UN value in treated to vehicle treated ones after intraperitoneal administration of 1 mg/kg of compound to rats(vehicle 120.9+/-23.3); type: functional; details: ip
Rattus norvegicus [13] = experiment: Ratio of urinary excretion value (urinary volume) in treated rats to that in control rats, at a peroral dose of 25 mg/Kg; type: functional, Urine
Rattus norvegicus [14] = experiment: Urea nitrogen concentration measured after intraperitoneal administration of 10 mg/kg of compound to rats(vehicle 146.7+/-10.1); type: functional
Rattus norvegicus [15] = experiment: Effect on urinary excretion potassium and sodium after oral administration of 1.6 mg/kg to rats(potassium and sodium excretion in control rat is 0.158+/-0.034); type: functional, Urine
Rattus norvegicus [16] = experiment: Serum creatinine concentration measured after intraperitoneal administration of 1 mg/kg of compound to rats(vehicle 3.06+/-0.68); type: functional
Rattus norvegicus [17] = experiment: Percent inhibition of serum creatinine by the compound given as ratio of Cr value in treated to vehicle treated ones after intraperitoneal administration of 10 mg/kg of compound to rats(vehicle 4.26+/-0.39); type: functional; details: ip
Rattus norvegicus [18] = experiment: Ratio of urinary excretion value (urinary volume) in treated rats to that in control rats, at a peroral dose of 1.6 mg/Kg; type: functional, Urine
Rattus norvegicus [19] = experiment: Serum creatinine concentration measured after intraperitoneal administration of 1 mg/kg of compound to rats(vehicle 5.07+/-0.33); type: functional
Rattus norvegicus [20] = experiment: Oral diuretic activity was measured after oral administration of 1.6 mg/kg to rats(control volume is 0.97+/-0.05); type: functional, Urine
Rattus norvegicus [21] = experiment: Oral diuretic activity was measured after oral administration of 0.1 mg/kg to rats(control volume is 1.05+/-0.11); type: functional, Urine
Rattus norvegicus [22] = experiment: Serum creatinine concentration measured after intraperitoneal administration of 0.01 mg/kg of compound to rats(vehicle 3.92+/-0.23); type: functional
Rattus norvegicus [23] = experiment: Percent inhibition of Urea nitrogen by the compound given as ratio of UN value in treated to vehicle treated ones after intraperitoneal administration of 0.01 mg/kg of compound to rats(vehicle 141.3+/-8.3); type: functional; details: ip
Rattus norvegicus [24] = experiment: Urea nitrogen concentration measured after intraperitoneal administration of 1 mg/kg of compound to rats(vehicle 195.8+/-14.4); type: functional
Rattus norvegicus [25] = experiment: Effect on urinary excretion potassium and sodium after oral administration of 1.6 mg/kg to rats(potassium and sodium excretion in control rat is 0.169+/-0.012); type: functional, Urine
Rattus norvegicus [26] = experiment: Effect on urinary excretion potassium and sodium after oral administration of 0.4 mg/kg to rats(potassium and sodium excretion in control rat is 0.147+/-0.015); type: functional, Urine
Rattus norvegicus [27] = experiment: Percent inhibition of Urea nitrogen by the compound given as ratio of UN value in treated to vehicle treated ones after intraperitoneal administration of 0.1 mg/kg of compound to rats(vehicle 151.5+/-7.4); type: functional; details: ip
Rattus norvegicus [28] = experiment: Urea nitrogen concentration measured after intraperitoneal administration of 0.1 mg/kg of compound to rats(vehicle 151.5+/-7.4); type: functional
Rattus norvegicus [29] = experiment: Percent inhibition of serum creatinine by the compound given as ratio of Cr value in treated to vehicle treated ones after intraperitoneal administration of 0.01 mg/kg of compound to rats(vehicle 3.92+/-0.23); type: functional; details: ip
Rattus norvegicus [30] = experiment: Oral diuretic activity was measured after oral administration of 0.4 mg/kg to rats(control volume is 0.96+/-0.09); type: functional, Urine
Rattus norvegicus [31] = experiment: Percent inhibition of serum creatinine by the compound given as ratio of Cr value in treated to vehicle treated ones after intraperitoneal administration of 0.1 mg/kg of compound to rats(vehicle 4.82+/-0.17); type: functional; details: ip
Rattus norvegicus [32] = experiment: Percent inhibition of Urea nitrogen by the compound given as ratio of UN value in treated to vehicle treated ones after intraperitoneal administration of 1 mg/kg of compound to rats(vehicle 195.8+/-14.4); type: functional; details: Rattus norvegicus, ip
Rattus norvegicus [33] = experiment: Urea nitrogen concentration measured after intraperitoneal administration of 0.01 mg/kg of compound to rats(vehicle 141.3+/-8.3); type: functional
Rattus norvegicus [34] = experiment: Ratio of urinary excretion value (urinary volume) in treated rats to that in control rats, at a peroral dose of 0.4 mg/Kg; type: functional, Urine
Rattus norvegicus [35] = organism: Rattus norvegicus; experiment: Ratio of sodium ion/potassium ion concentration in treated rats to that in control rats, at a peroral dose of 0.1; type: functional
Rattus norvegicus [36] = experiment: Ratio of urinary excretion value (Na+ concentration) in treated rats to that in control rats, at a peroral dose of 0.1 mg/Kg; type: functional, Urine
Rattus norvegicus [37] = experiment: Ratio of sodium ion/potassium ion concentration in treated rats to that in control rats, at a peroral dose of 0.4 mg/Kg; type: functional
Rattus norvegicus [38] = experiment: Effect on urinary excretion potassium and sodium after oral administration of 0.1 mg/kg to rats(potassium and sodium excretion in control rat is 0.180+/-0.017); type: functional, Urine
Rattus norvegicus [39] = experiment: Serum creatinine concentration measured after intraperitoneal administration of 0.1 mg/kg of compound to rats(vehicle 4.82+/-0.17); type: functional
Rattus norvegicus [40] = organism: Rattus norvegicus; experiment: animal or person; details: ip, read-out: Inhibition, dose 1 mg/kg, route intraperitoneal
Rattus norvegicus [41] = experiment: Ratio of urinary excretion value (Na+ concentration) in treated rats to that in control rats, at a peroral dose of 0.4 mg/Kg; type: functional, Urine
Rattus norvegicus [42] = experiment: Ratio of urinary excretion value (urinary volume) in treated rats to that in control rats, at a peroral dose of 0.1 mg/Kg; type: functional, Urine

Question: For `CCCn1c(=O)c2nc(C[C@H]3CC4CCC3C4)[nH]c2n(CCC)c1=O` (some centres not stated), which Ki (Adenosine A2 receptor) is on record?
Answer: The Ki was 1000 nM.

Question: What about the “Na+/K+” value (Rattus norvegicus [1]) of the same compound?
Answer: Its value is 2.12.

Question: And the Urine volume (Rattus norvegicus [2])?
Answer: Its Urine volume is 1.66 ml 6hr-1 100g-1.

Question: What about the inhibition in vivo at 1 mg/kg (Rattus norvegicus [3]) of the same compound?
Answer: Its inhibition in vivo at 1 mg/kg is 10%.

Question: And the inhibition in vivo at 10 mg/kg (Rattus norvegicus [4])?
Answer: The inhibition in vivo at 10 mg/kg was 38%.

Question: What about the T/C (Rattus norvegicus [5]) of the same compound?
Answer: Its T/C is 0.83.

Question: What about the “Na+/K+” value (Rattus norvegicus [6]) of the same compound?
Answer: The value was 0.85.

Question: What about the T/C (Rattus norvegicus [7]) of the same compound?
Answer: The T/C was 2.91.

Question: What about the Urine volume (Rattus norvegicus [8]) of the same compound?
Answer: The Urine volume was 0.86 ml 6hr-1 100g-1.

Question: And the Na (Rattus norvegicus [9])?
Answer: The Na was 0.23 m equiv 6hr-1 100g-1.

Question: What about the Cr (Rattus norvegicus [10]) of the same compound?
Answer: The Cr was 2.53 mg/dL.

Question: What about the UN (Rattus norvegicus [11]) of the same compound?
Answer: Its UN is 104.7 mg/dL.

Question: And the inhibition in vivo at 1 mg/kg (Rattus norvegicus [12])?
Answer: The inhibition in vivo at 1 mg/kg was 13%.

Question: And the T/C (Rattus norvegicus [13])?
Answer: Its T/C is 2.41.

Question: What about the UN (Rattus norvegicus [14]) of the same compound?
Answer: The UN was 90.9 mg/dL.

Question: And the Na (Rattus norvegicus [15])?
Answer: Its Na is 0.131 m equiv 6hr-1 100g-1.

Question: What about the Cr (Rattus norvegicus [16]) of the same compound?
Answer: Its Cr is 2.75 mg/dL.

Question: What about the inhibition in vivo at 10 mg/kg (Rattus norvegicus [17]) of the same compound?
Answer: The inhibition in vivo at 10 mg/kg was 41%.

Question: And the T/C (Rattus norvegicus [18])?
Answer: Its T/C is 0.77.

Question: Which results are given for `Cn1c(=O)c2nc(C34CC5CC(CC3C5)C4)[nH]c2n(C)c1=O`?
Answer: Cr (Rattus norvegicus [19]): 2.88 mg/dL; Urine volume (Rattus norvegicus [20]): 2.27 ml 6hr-1 100g-1; Urine volume (Rattus norvegicus [21]): 0.86 ml 6hr-1 100g-1; Cr (Rattus norvegicus [22]): 3.53 mg/dL; Ki (Adenosine A2 receptor): 1200 nM; inhibition in vivo at 0.01 mg/kg (Rattus norvegicus [23]): 6%; UN (Rattus norvegicus [24]): 116.7 mg/dL; Na (Rattus norvegicus [25]): 0.398 m equiv 6hr-1 100g-1; T/C (Rattus norvegicus [5]): 2.36; Na+/K+ (Rattus norvegicus [6]): 1.67; Na (Rattus norvegicus [26]): 0.257 m equiv 6hr-1 100g-1; inhibition in vivo at 0.1 mg/kg (Rattus norvegicus [27]): 36%; UN (Rattus norvegicus [28]): 97.3 mg/dL; inhibition in vivo at 0.01 mg/kg (Rattus norvegicus [29]): 10%; Urine volume (Rattus norvegicus [30]): 1.59 ml 6hr-1 100g-1; inhibition in vivo at 0.1 mg/kg (Rattus norvegicus [31]): 35%; inhibition in vivo at 1 mg/kg (Rattus norvegicus [32]): 40%; UN (Rattus norvegicus [33]): 133.4 mg/dL; T/C (Rattus norvegicus [34]): 1.66; Na+/K+ (Rattus norvegicus [35]): 0.97; T/C (Rattus norvegicus [36]): 0.91; Na+/K+ (Rattus norvegicus [37]): 1.54; Na (Rattus norvegicus [38]): 0.163 m equiv 6hr-1 100g-1; Cr (Rattus norvegicus [39]): 3.14 mg/dL; inhibition in vivo at 1 mg/kg (Rattus norvegicus [40]): 43%; T/C (Rattus norvegicus [41]): 1.74; T/C (Rattus norvegicus [42]): 0.82; T/C (Rattus norvegicus [18]): 2.34
